Measurements: patent publication US20240299353A1, “COMPOSITIONS AND METHODS FOR TREATING […] 5-MEO-DMT” (Alvarius Pharmaceuticals Ltd., priority 2021, published 2024)

What was measured:
hippocampal proteins = assay: Hippocampal LC-MS/MS proteomics, chronic cocaine with single psychedelic administration; type: in vivo, Male Wister rats; conditions: for differential expression of proteins in the control hippocampus: single i.p. dose (5-MeO-DMT 5 mg/kg, LSD 0.14 mg/kg, psilocybin 1 mg/kg, DOI 1 mg/kg) vs saline-saline, p<0.05, FC ±20%; for differential expression of proteins in the chronic cocaine hippocampus: single i.p. dose after 14 days cocaine 20 mg/kg (5-MeO-DMT 5, LSD 0.14, psilocybin 1, DOI 1 mg/kg) vs cocaine-saline; for reversal of chronic cocaine mediated proteomic changes in the hippocampus: single treatment (5-MeO-DMT 5, LSD 0.14, psilocybin 1, DOI 1 mg/kg i.p.)
Procedure: (§1) Animals were then randomly allocated to one of five groups and received a single i.p. injection of one of vehicle, 5 mg/kg 5-Meo-DMT, 0.14 mg/kg LSD, 1 mg/kg psilocybin, or 1 mg/kg DOI. On day 15, animals were euthanised and the hippocampus blunt dissected, snap frozen in liquid nitrogen and stored at −80° C. until further processing.
Protein from hippocampal tissue was processed for liquid chromatography tandem Mass Spectrometry (LC-MS/MS). Samples were run on a Thermo Scientific Q Exactive Mass Spectrometer connected to a Dionex Ultimate 3000 (RSLCnano) chromatography system in the UCD Conway Institute Core Mass Spectrometry Facility. Peptide and protein identification of MS/MS spectra were searched against the rat UniProt database using carbamidomethylation (C) as a fixed modification and acetylation (protein N terminus) and oxidation (M) as variable modifications with a false discovery rate filtering of 0.01. MaxQuant was using to generate label-free quantitative (LFQ) ion intensities and the Perseus statistical software contained in the MaxQuant package was used to analyse LFQ ion intensity. Statistical significance (p<0.05, FC±20%) of mean LFQ intensity between treatment groups was determined by two sample t-test. […] Networks were visualised using the stringApp (version 1.6.0) plugin for the Cytoscape software platform (version 3.8.2).

[1] = tested on: top 10 cocaine-dysregulated biological pathways in the hippocampus; assay: Biological pathway analysis (IPA) of transcriptomics, cocaine-dysregulated pathways; type: in vivo, Male Wister rats; conditions: single treatment
Procedure: as §1
Subsequent pathway analyses were done using Ingenuity Pathway Analysis (IPA). Analysis settings for IPA included the Ingenuity Knowledge Base (Genes Only), direct and indirect relationships, and endogenous chemicals of the previously filtered list of differentially expressed genes. IPA was filtered to only consider molecules where the species were human, rat, or mouse and the confidence can be experimentally observed. Canonical pathways were utilized in pathway analysis, where the spreadsheet organized the values of significance to −log(p-value) and the rate of regulation to the z-score. Negative z-score values indicate downregulation and positive values indicate upregulation.

[2] = tested on: primary hippocampal neurons; assay: Antagonist pre-treatment studies of neuronal structural change, Sholl analysis; type: cell-based, rat; conditions: for neuronal structural complexity (normalised AUC): meta-analysis
Procedure: Primary hippocampal cultures were grown on 18 mm glass coverslips at a density of 1×10^6 cells as described. On 3 DIV all cells underwent a full medium change. […] On 4 DIV, all cells underwent a second full medium change. Cells in the combination group were treated with 2 μM 5-MeO-DMT for a further 24 hours with all other groups beginning a 24-hour treatment. After treatment was completed the cells were fixed and processed as described below.
Based on the findings with other psychedelic drugs that share structural and behavioral similarities to 5-MeO-DMT we selected ANA-12 (Sigma), an antagonist of TrkB, the BDNF receptor, and rapamycin (ThermoFischer) an antagonist of the mammalian target of rapamycin (mTOR). Due to the affinity and known behavioral change induced by 5-MeO-DMT at the 5-HT1AR and 5-HT2AR we assessed their contribution to structural changes mediated by 5-MeO-DMT. The receptors were antagonized with WAY-100635 maleate (Tocris) or Ketanserin (Axxora), respectively. For all antagonist studies the antagonist under investigation was added 15 mins prior to drug treatment. […] ANA-12, Ketanserin and rapamycin were dissolved in dimethyl sulfoxide (DMSO) with a final concentration of 0.01-0.04% for treatment. WAY100635 was dissolved in sterile dH2O.
After termination of drug treatment coverslips were processed and imaged as outlined for immunocytochemistry. In all instances NeuN antibody staining was used to visualize projections from the cell body. Images were analyzed using the Simple Neurite Tracer and Sholl analysis plug-ins for ImageJ Fiji. For the Sholl analysis circle radii of 2 μm increments were used. All images were taken and analyzed by an experimenter blinded to treatment conditions.
Statistical Analysis—Data are represented as mean±SEM. Statistical analyses were performed using GraphPad Prism (version 5). For analyses involving comparison of three or more groups, a one-way ANOVA with Bonferroni's post-hoc test was utilized where appropriate. No statistics were calculated for the individual points of the Sholl plots, instead, statistical analyses were performed on the aggregate data, the area under the curve (AUC) of the Sholl plot. Secondary measurements were the Nmax, the maximum number of intersections measured by the Sholl analysis, which indicated the number of projections emanating from a neuron and the average length of primary neurites originating from the cell soma.

5-HT2AR = 5-HT2AR (Homo sapiens, UniProt P28223); conditions: metabolite of 5-MeO-DMT; cited from earlier work
[3] = ketanserin 100 μM treated groups relative to control

Sequence of 5-HT2AR (P28223 whole entry): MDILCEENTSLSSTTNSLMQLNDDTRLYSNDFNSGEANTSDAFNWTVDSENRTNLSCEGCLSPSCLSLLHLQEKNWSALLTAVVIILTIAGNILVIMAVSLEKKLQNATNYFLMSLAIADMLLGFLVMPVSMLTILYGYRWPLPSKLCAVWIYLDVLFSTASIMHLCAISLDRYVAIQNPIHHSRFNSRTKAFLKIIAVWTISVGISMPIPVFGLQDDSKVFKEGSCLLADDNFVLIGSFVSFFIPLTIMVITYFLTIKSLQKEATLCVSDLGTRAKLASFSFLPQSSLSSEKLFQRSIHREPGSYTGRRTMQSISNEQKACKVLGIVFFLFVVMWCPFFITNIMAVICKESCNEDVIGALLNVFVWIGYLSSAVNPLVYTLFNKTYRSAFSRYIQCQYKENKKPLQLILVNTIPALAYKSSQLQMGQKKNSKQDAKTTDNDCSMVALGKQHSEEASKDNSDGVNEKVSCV

With `COc1cc(CC(C)N)c(OC)cc1I` (stereo not drawn) [DOI, 2,5-Dimethoxy-4-iodoamphetamine] the “differential expression of proteins in the control hippocampus” value (hippocampal proteins) was 79 proteins, the “differential expression of proteins in the chronic cocaine hippocampus” value (hippocampal proteins) was 55 proteins and the “reversal of chronic cocaine mediated proteomic changes in the hippocampus” value (hippocampal proteins) was 70%.
In the case of `CN(C)CCc1c[nH]c2cccc(OP(=O)(O)O)c12` [psilocybin, Psilocybin], the “number of the top 10 dysregulated pathways corrected” value [1] is reported as 7 pathways, the “top 10 cocaine-dysregulated biological pathways corrected” value [1] is reported as 70% and the “differential expression of proteins in the control hippocampus” value (hippocampal proteins) is reported as 91 proteins. For the same compound, the “differential expression of proteins in the chronic cocaine hippocampus” value (hippocampal proteins) was 45 proteins and the “reversal of chronic cocaine mediated proteomic changes in the hippocampus” value (hippocampal proteins) was 74%.
In the case of `O=C(c1ccc(F)cc1)C1CCN(CCn2c(=O)[nH]c3ccccc3c2=O)CC1` [Ketanserin], the average neurite length [2, 3] is reported as “significantly decreased”, the “maximum number of intersections (Nmax)” value [2, 3] is reported as “significantly reduced” and the “normalised AUC of the Sholl plot” value ([2]; ketanserin 100 μM, 15 min pre-treatment, all treatment groups) is reported as “significantly reduced normalised AUC across all treatment groups”. The “neuronal structural complexity (normalised AUC)” value ([2]; ketanserin pre-treatment) was “significantly reduced normalised AUC across all treatment groups”.
For `CCN(CC)C(=O)[C@@H]1C=C2c3cccc4[nH]cc(c34)C[C@H]2N(C)C1` [LSD, Lysergic acid diethylamide], the “number of the top 10 dysregulated pathways corrected” value [1] was 5 pathways, the “top 10 cocaine-dysregulated biological pathways corrected” value [1] was 50% and the “differential expression of proteins in the control hippocampus” value (hippocampal proteins) was 73 proteins. For the same compound, the “differential expression of proteins in the chronic cocaine hippocampus” value (hippocampal proteins) was 57 proteins and the “reversal of chronic cocaine mediated proteomic changes in the hippocampus” value (hippocampal proteins) was 59%.
For `COc1ccccc1N1CCN(CCN(C(=O)C2CCCCC2)c2ccccn2)CC1.O=C(O)/C=C\C(=O)O` [WAY100635, WAY-100635 maleate], the average neurite length ([2]; WAY100635 100 nM pre-treatment before 5-MeO-DMT) was “prevented the 5-Meo-mediated increase in neurite length”, the “maximum number of intersections (Nmax)” value ([2]; WAY100635 100 nM treated groups relative to vehicle treated pairings) was “significantly reduced” and the “normalised AUC of the Sholl plot” value ([2]; WAY100635 100 nM, 15 min pre-treatment before 5-MeO-DMT or cocaine) was “prevented the 5-Meo- and cocaine-induced increase in normalised AUC”. For the same compound, the “neuronal structural complexity (normalised AUC)” value ([2]; WAY100635 pre-treatment) was “prevented the increase in complexity mediated by all treatments”.
In the case of `CN(C)CCc1c[nH]c2ccc(O)cc12` [bufotenine, 5-hydroxy,N,Ndimethyltryptamine], the “affinity for the 5-HT2AR relative to the parent compound” value (5-HT2AR) is listed as “much higher affinity for the 5-HT2AR than the parent compound”.
With `O=C(Nc1ccccc1C(=O)NC1CCCCNC1=O)c1cc2ccccc2s1` (stereo not drawn) [ANA-12] the average neurite length ([2]; ANA-12 10 μM pre-treatment, 5-MeO-DMT-induced increase) was “blocked”, the “AUC of the Sholl plot” value ([2]; ANA-12 10 μM, 15 min pre-treatment before 5-MeO-DMT, cocaine or combination) was “prevented the 5-Meo-, cocaine- or combination-induced increase in AUC” and the “maximum number of intersections (Nmax)” value ([2]; ANA-12 pre-treated combination group relative to vehicle pre-treated combination group) was “significantly reduced”. For the same compound, the “AUC of the Sholl plot” value ([2]; control+ANA-12 vs control+vehicle (basal complexity)) was “no difference in AUC” and the “neuronal structural complexity (normalised AUC)” value ([2]; ANA-12 pre-treatment) was “prevented the 5-Meo-, cocaine- or combination-induced increase in complexity”.
